In patent US20250213561A1, “SELECTIVE HYPOTHALAMUS PERMEABLE HDAC6 INHIBITORS FOR TREATMENT OF LEPTIN-RESISTANT OBESITY” (The Children’s Medical Center Corporation, priority 2022, published 2025):
Entries after “also recorded” stand apart in the source; their conditions may differ.

Assays:
[1] = Brain/plasma ratio and brain or hypothalamus penetration; conditions: in vivo
DIO mice [2] = test: Chronic treatment of DIO mice (body weight, food intake, DEXA, glucose homeostasis); type: in vivo; conditions: for body weight: 3 weeks i.p., ricolinostat 50 mg/kg, bavarostat 10 mg/kg, citarinostat 25 mg/kg; for food intake: 3 weeks treatment
Experimental: DIO mice were treated with ACY775 (10 mg/kg/day, i.p.) for 3 weeks. Daily body weight (g) of DIO mice treated with vehicle (n=17) or ACY775 (n=17) during 3 weeks of treatment was determined. Daily food intake (g) during 3 weeks of vehicle or ACY775 treatment was assessed. 24 hours' food intake per mouse during the first week of vehicle or ACY775 treatment was determined. Serum leptin (ng/ml) levels after 3 weeks of vehicle (n=24) or ACY775 (n=24) treatment was assessed. Lean mass (g), fat mass (g) and fat percentage (%) after 3 weeks of vehicle (n=17) or ACY775 (n=17) treatment measured by Dual-energy X-ray absorptiometry (DEXA) scan. DEXA scans were performed in two different cohorts. Glucose tolerance test (GTT) after 1 week of vehicle (n=33) or ACY775 (n=26) treated DIO mice was assessed. Area of curve (AOC) analysis for GTT was performed. Blood glucose (mg/dl) levels after 1 week of vehicle (n=17) or ACY775 (n=16) were assessed in treated DIO mice. Insulin tolerance test (ITT) was performed after 2 weeks of vehicle (n=31) or ACY775 (n=21) treatment of DIO mice. Serum insulin (ng/ml) levels were measured after 3 weeks of vehicle (n=22) or ACY775 (n=21) in treated DIO mice. A homeostatic model assessment of insulin resistance (HOMA-IR) was analyzed after 3 weeks of vehicle (n=14) or ACY775 (n=13) treated DIO mice.
Food intake was analyzed hourly until 3:00 am. […] DEXA scans were performed in two different cohorts.
DIO mice then were treated with ricolinostat (50 mg/kg, i.p.) for 3 weeks. Daily body weight (g), daily food intake (g), serum leptin (ng/ml) levels after 3 weeks of vehicle (n-8) or ricolinostat (n=8) treatment, lean mass (g); fat mass and fat percentage (%) after 3 weeks of vehicle (n=16) or ricolinostat (n=17) treatment measured by DEXA scan were determined.
Blood glucose (mg/dl) levels were measured after 1 week of vehicle (n=16) or ricolinostat (n=16) treated DIO mice. GTT after 1 week of vehicle (n=17) or ricolinostat (n=16) treatment of DIO mice was assessed. AOC analysis for GTT was performed. ITT after 2 weeks of vehicle (n=17) or ricolinostat (n=16) treated DIO mice was measured. Serum insulin (ng/ml) levels after 3 weeks of vehicle (n=8) or ricolinostat (n=8) treatment were measured in DIO mice. Liver sections from 3 weeks of vehicle or ricolinostat treated DIO mice were stained by H&E.
DIO mice then were treated with bavarostat (10 mg/kg, i.p.) for 3 weeks and daily body weight (g) of DIO mice treated with Veh (n=9) or bavarostat (n=9) measured during the three weeks of treatment period. Daily food intake (g) during 3 weeks of Veh or bavarostat treatment was also measured.
ACY1083 was administered to DIO mice as described in Example 3.

HDAC6-KO DIO mice = test: Chronic treatment of DIO WT versus HDAC6 KO mice; type: in vivo; conditions: DIO mice, 3 weeks; ACY775 10, ACY738 50, Tubastatin A 25 mg/kg/day i.p.
[3] = in vivo; cited from earlier work
HDAC6 [4] = target: HDAC6 (Mus musculus (Mouse), UniProt Q9Z2V5); test: Ac-tubulin immunoblotting of tissues (HDAC6 inhibition in hypothalamus and brain regions); type: in vivo, mice; conditions: for HDAC6 inhibition in other brain regions: cerebrum, frontal lobe, temporal lobe, brainstem; for HDAC6 inhibition in the hypothalamus: mouse, in vivo
DIO mice [5] = test: Acute leptin co-treatment in DIO mice (body weight, food intake 15 h); type: in vivo; conditions: for body weight, agent alone: ACY775 10 mg/kg, ricolinostat 25 mg/kg
Experimental: DIO mice were pretreated with ACY775 (10 mg/kg/day, i.p.) or vehicle for 3 days, which was followed by co-treatment with ACY775 (or vehicle) and leptin (1 mg/kg, i.p.) (or saline) (n=9 for each group), % change in body weight 15 h after leptin treatment, food intake (g) during the 15 h period after leptin treatment. The results in were reproduced in two independent experiments.
Diet induced obese (DIO) mice were pretreated with ACY775 (10 mg/kg/day, i.p.) or vehicle for 3 days, which was followed by co-treatment with ACY775 (or vehicle) and leptin (1 mg/kg, i.p.) (or saline) (n=9 for each group). Mice were evaluated for % change in body weight 15 h after leptin treatment, and food intake (g) during the 15 h period after leptin treatment.
DIO mice were pretreated with ricolinostat (25 mg/kg/day, i.p.) or vehicle for 3 days, which was followed by co-treatment with ricolinostat (or vehicle) and leptin (1 mg/kg, i.p.) (or saline) (n=32 for each group). Change in body weight 15 h after leptin treatment, and food intake (g) during the 15 h period after leptin treatment were determined. The results were reproduced in two independent experiments.

p-STAT3^Tyr705 = test: Leptin-stimulated hypothalamic STAT3 Tyr705 phosphorylation in DIO mice; type: in vivo; conditions: 45 minutes after leptin 1 mg/kg i.p.
Experimental: DIO mice were pretreated with ACY775 (10 mg/kg/day, i.p.) or vehicle for 3 days, which was followed by a last injection of ACY775 (or vehicle) in the morning of fourth day. 6 hours later mice were injected with saline or leptin (1 mg/kg, i.p.) and hypothalamus were extracted after 45 minutes following the leptin injection. Representative immunoblots for STAT3^Tyr705 phosphorylation and total STAT3 from the hypothalamus. Quantification of the ratio of p-STAT3^Tyr705 to total-STAT3 signal in the immunoblots. The results were reproduced in three independent experiments. The results were analyzed hourly.
DIO mice were pretreated with ACY775 (10 mg/kg/day, i.p.) or vehicle for 3 days, which was followed by a last injection of ACY775 (or vehicle) in the morning of fourth day. 6 hours later mice were injected with saline or leptin (1 mg/kg, i.p.) and the hypothalamus were extracted after 45 minutes following the leptin injection.
6 hours later mice were injected with saline or leptin (1 mg/kg, i.p.) and hypothalamus were extracted after 45 minutes following the leptin injection. Immunoblots for STAT3^Tyr705 phosphorylation and total STAT3 from the hypothalamus were made to quantify the ratio of p-STAT3^Tyr705 to total-STAT3 signal in the immunoblots. The results were reproduced in two independent experiments.
DIO mice were pretreated with ricolinostat (50 mg/kg/day, i.p.) or vehicle 3 days, which was followed by a last injection of ricolinostat (or vehicle) in the morning of fourth day. 6 hours later mice were injected with saline or leptin (1 mg/kg, i.p.) and the hypothalamus were extracted after 45 minutes following the leptin injection. Immunoblots were performed for STAT3^Tyr705 phosphorylation and total STAT3 from the hypothalamus. The ratio of p-STAT3^Tyr705 to total STAT3 signal in the immunoblots was quantified.

[6] = system: ACY775-responsive DMH neurons; test: Chemogenetic (hM3Dq) activation of ACY775-responsive DMH neurons; type: in vivo; conditions: ACY775-induced hM3Dq TRAP2 DIO mice
Experimental: Next, the ACY775-responsive DMH neurons were chemogenically activated to investigate whether activation of these neurons would be sufficient to reduce the food intake and the bodyweight. Adeno-associated virus (AAV) carrying Cre-dependent hM3Dq-DREADD fused to mCherry transgene (AAV-DIO-hM3Dq-mCherry) was injected bilaterally into the DMH of TRAP2 DIO mice. Four weeks after injections, a single dose of ACY775 (10 mg/kg, i.p.) or vehicle was injected to induce c-fos expression. Subsequently, 4-OHT injection was performed after 5 h to activate c-fos driven Cre in the fasted DIO mice. The mCherry signal was expressed only in ACY775-treated TRAP2 DIO mice and was absent in vehicle-treated TRAP2 DIO mice.
Next, both AAV-DIO-hM3Dq-mCherry- and ACY775-injected, and vehicle-treated TRAP2 DIO mice with saline were treated for 3 days and with clozapine N-oxide (CNO) for 4 days. […] The blood glucose levels at the end of saline and CNO treatment was also measured. […] Blood glucose lowering effect of CNO was absent compared in Veh-induced TRAP2 DIO mice and in all the saline-treated mice.

HDAC6 [7] = test: Ac-tubulin immunoblotting in HEK293 cells; type: cell-based

Chain of HDAC6 (Mus musculus (Mouse), UniProt Q9Z2V5) (Q9Z2V5 whole entry): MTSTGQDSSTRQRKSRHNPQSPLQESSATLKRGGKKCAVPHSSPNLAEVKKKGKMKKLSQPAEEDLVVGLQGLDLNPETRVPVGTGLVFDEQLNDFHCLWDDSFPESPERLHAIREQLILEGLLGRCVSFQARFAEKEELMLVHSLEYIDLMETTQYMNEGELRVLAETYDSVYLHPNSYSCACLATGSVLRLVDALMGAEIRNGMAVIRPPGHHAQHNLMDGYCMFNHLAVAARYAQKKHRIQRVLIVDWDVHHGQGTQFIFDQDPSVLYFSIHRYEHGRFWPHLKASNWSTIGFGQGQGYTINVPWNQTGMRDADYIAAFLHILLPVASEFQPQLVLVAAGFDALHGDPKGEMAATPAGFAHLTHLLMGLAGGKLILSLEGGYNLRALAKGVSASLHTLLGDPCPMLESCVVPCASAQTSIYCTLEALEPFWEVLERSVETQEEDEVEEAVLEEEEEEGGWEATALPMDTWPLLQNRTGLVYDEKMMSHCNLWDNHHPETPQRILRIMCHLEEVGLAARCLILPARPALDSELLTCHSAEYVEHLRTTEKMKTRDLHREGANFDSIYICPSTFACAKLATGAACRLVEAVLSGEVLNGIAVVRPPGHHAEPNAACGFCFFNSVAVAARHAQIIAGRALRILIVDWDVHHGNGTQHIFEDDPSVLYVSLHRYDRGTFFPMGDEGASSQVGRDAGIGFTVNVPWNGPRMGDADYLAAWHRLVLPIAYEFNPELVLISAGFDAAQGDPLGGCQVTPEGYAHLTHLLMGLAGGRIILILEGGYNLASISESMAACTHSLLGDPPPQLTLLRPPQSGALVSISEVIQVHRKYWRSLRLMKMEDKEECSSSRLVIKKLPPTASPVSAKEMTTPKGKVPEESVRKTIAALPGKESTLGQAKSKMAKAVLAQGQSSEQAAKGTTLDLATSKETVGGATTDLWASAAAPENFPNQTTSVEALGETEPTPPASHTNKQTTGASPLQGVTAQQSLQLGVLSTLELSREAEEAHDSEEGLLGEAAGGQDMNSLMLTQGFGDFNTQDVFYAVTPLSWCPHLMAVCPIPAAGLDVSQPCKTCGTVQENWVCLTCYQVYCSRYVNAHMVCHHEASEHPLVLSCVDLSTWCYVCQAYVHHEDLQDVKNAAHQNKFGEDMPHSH

Molecule | penetrance into the hypothalamus [1] | body weight (DIO mice [2]; DIO mice) | food intake (DIO mice [2]; DIO mice) | brain penetrance / BBB permeability [3] | HDAC6 inhibition in other brain regions (HDAC6 [4]) | body weight, agent alone (DIO mice [5]; 15 h, leptin 1 mg/kg i.p.) | food intake, agent alone (DIO mice [5]; 15 h period) | leptin-stimulated hypothalamic p-STAT3^Tyr705 (p-STAT3^Tyr705) | other results
CN(Cc1ccc(C(=O)NO)cc1F)CC12CC3CC(CC(C3)C1)C2 [bavarostat, 4-(((((3r,5r,7r)-adamantan-1-yl)methyl)(methyl)amino)methyl)-3-fluoro-N-hydroxybenzamide] | high penetrance of the hypothalamus | statistically significantly effective in reducing food intake and body weight | Appetite was initially suppressed but then rose over time | high brain penetrance |  |  |  |  | food intake and total body fat mass (summary) (DIO mice [2]; high fat diet induced mice): significant reduction of food intake and total body fat mass; body weight, WT versus HDAC6 KO (HDAC6-KO DIO mice): treatment of wild type mice but not HDAC6 Knockout animals with bavarostat caused weight loss; also recorded: equivalent to vehicle in HDAC-6 KO mice
CC1CCC(C(C)(C2CCC(C)CC2)C2CCC(C(C)C(C)CCCCC(C)C(C)C)CC2)CC1 (stereo not drawn) [ACY257] |  | as effective as ACY775 in reducing body weight |  |  | does not inhibit HDAC6 in other brain regions |  |  |  | 
leptin: peptide hormone that serves as the afferent signal in a negative feedback loop regulating food intake and body weight |  |  |  |  |  | did not significantly alter their bodyweight; also recorded: did not change their bodyweight | did not significantly change the food intake | did not significantly increase STAT3^Tyr705 phosphorylation | 
O=C(CCCCCCNC(=O)c1cnc(N(c2ccccc2)c2ccccc2Cl)nc1)NO [citarinostat] |  | not effective in reducing body weight |  | good brain penetrance | inhibits HDAC6 in other brain regions |  |  |  | HDAC6 inhibition in the hypothalamus (HDAC6 [4]): does not show HDAC6 inhibition in the AGP neurons in the hypothalamus; HDAC6 inhibition in the hypothalamus (HDAC6 [4]; listed as Citarinostat): but not in the hypothalamus
C[N+]1([O-])CCN(C2=Nc3cc(Cl)ccc3Nc3ccccc32)CC1 [CNO, clozapine N-oxide] |  |  |  |  |  |  |  |  | blood glucose levels [6]: significantly decreased blood glucose levels; bodyweight and food intake ([6]; CNO 4 days): significant reduction in bodyweight and food intake
O=C(CCCCCCNC(=O)c1cnc(N(c2ccccc2)c2ccccc2)nc1)NO [ricolinostat] | neither of which have high penetrance into the hypothalamus | minimal decrease in bodyweight for the first couple of days without creating any meaningful or significant decreases; also recorded: does not reduce body weight | reduced transitionally during the first 2-3 days of treatment but then rebounded | poor BBB permeability |  | did not decrease the bodyweight | had no effect on the food intake | did not significantly increase STAT3^Tyr705 phosphorylation | tubulin acetylation (HDAC6 inhibitor activity in cells) (HDAC6 [7]): confirmation of Ricolinstat's HDAC6 inhibitory activity; body weight, leptin after pre-treatment with inhibitor (DIO mice [5]; 3 days pre-treatment, leptin 1 mg/kg i.p., 15 h): did not reduce the body weight; food intake, leptin together with inhibitor (DIO mice [5]; leptin 1 mg/kg i.p., 15 h period): had no effect on the food intake; insulin tolerance test (ITT) (DIO mice [2]; DIO mice): did not improves; hepatic steatosis (H&E liver) (DIO mice [2]; DIO mice, 3 weeks): no decrease in the hepatic steatosis; glucose tolerance test (GTT) (DIO mice [2]; DIO mice, after 1 week): did not improves glucose tolerance; serum insulin levels (DIO mice [2]; DIO mice, after 3 weeks): did not reduce insulin levels; brain/plasma ratio [3]: < 0.01
